These are literature values, as cited in patent US20220295833A1, “SWEETENER BLENDS WITH IMPROVED TASTE” (The Coca-Cola Company, priority 2019, published 2022).

`C=C1C[C@@]23CC[C@H]4[C@@](C)(CCC[C@@]4(C)C(=O)O[C@@H]4O[C@H](CO)[C@@H](O)[C@H](O)[C@H]4O)[C@@H]2CC[C@]1(O[C@@H]1O[C@H](CO)[C@@H](O)[C@H](O[C@@H]2O[C@H](CO)[C@@H](O)[C@H](O)[C@H]2O)[C@H]1O[C@@H]1O[C@H](CO)[C@@H](O)[C@H](O)[C@H]1O)C3` [Rebaudioside A]: the aqueous solubility entry is reported as “about 0.8 wt %”.
